# From ChEMBL document CHEMBL5584341, “Discovery of Potent, Specific, and Orally Available NLRP3 Inflammasome Inhibitors Based on Pyridazine Scaffolds for the Treatment of Septic Shock and Peritonitis” (J Med Chem, 2024)
# The source made the active and inactive calls. The calls are words filed in the database; no cut-off is given here.
# Tests used:
# [1] = Inhibition of IL-1beta release in PMA-differentiated/ LPS and nigericin stimulated human THP-1 cells at 0.5 uM pretreated with LPS for 3 hrs followed by incubation with compound for 40 mins and later stimulated with nigericin for 40 mins by ELISA; assay type: functional; settings: THP-1, 1.333 h, time 80 min
# [2] = Metabolic stability in human liver microsomes assessed as half life at 10 uM […] in presence of NADPH by LC-MS/MS analysis; assay type: ADME, Microsome
# [3] = Metabolic stability in human liver microsomes assessed as intrinsic clearance per g protein at 10 uM […] in presence of NADPH by LC-MS/MS analysis; assay type: ADME, Microsome
# [4] = Half-life in BALB/c mouse at 5 mg/kg, iv measured upto 24 hrs by LC-MS/MS analysis; assay type: ADME, organism-based; settings: in vivo
# [5] = Cmax in BALB/c mouse at 5 mg/kg, iv measured upto 24 hrs by LC-MS/MS analysis; assay type: ADME, organism-based; settings: in vivo
# [6] = MRT(0 to t) in BALB/c mouse at 5 mg/kg, iv measured upto 24 hrs by LC-MS/MS analysis; assay type: ADME, organism-based; settings: in vivo
# [7] = Tmax in BALB/c mouse at 5 mg/kg, po measured upto 24 hrs by LC-MS/MS analysis; assay type: ADME, organism-based; settings: in vivo
# [8] = AUC(0 to t) in BALB/c mouse at 5 mg/kg, po measured upto 24 hrs by LC-MS/MS analysis; assay type: ADME, organism-based; settings: in vivo
# [9] = Oral bioavailability in BALB/c mouse at 5 mg/kg measured upto 24 hrs by LC-MS/MS analysis; assay type: ADME, organism-based; settings: in vivo
# [10] = system: LX-2; experiment: Cytotoxicity against human LX-2 cells at 5 uM incubated for 72 hrs by MTT assay; assay type: toxicity, cell-based; settings: lx-2, 72 h
# [11] = system: AML12; experiment: Cytotoxicity against mouse AML12 cells at 5 uM incubated for 72 hrs by MTT assay; assay type: toxicity, cell-based; settings: aml12, 72 h
# [12] = system: LX-2; experiment: Cytotoxicity against human LX-2 cells at 20 uM incubated for 72 hrs by MTT assay; assay type: toxicity, cell-based; settings: lx-2, 72 h
# [13] = molecular target: Cytochrome P450 3A4 (Homo sapiens, UniProt P08684); experiment: Inhibition of human CYP3A4 upto 10 uM relative to control; assay type: ADME
# Chain of Cytochrome P450 3A4 (P08684 whole entry): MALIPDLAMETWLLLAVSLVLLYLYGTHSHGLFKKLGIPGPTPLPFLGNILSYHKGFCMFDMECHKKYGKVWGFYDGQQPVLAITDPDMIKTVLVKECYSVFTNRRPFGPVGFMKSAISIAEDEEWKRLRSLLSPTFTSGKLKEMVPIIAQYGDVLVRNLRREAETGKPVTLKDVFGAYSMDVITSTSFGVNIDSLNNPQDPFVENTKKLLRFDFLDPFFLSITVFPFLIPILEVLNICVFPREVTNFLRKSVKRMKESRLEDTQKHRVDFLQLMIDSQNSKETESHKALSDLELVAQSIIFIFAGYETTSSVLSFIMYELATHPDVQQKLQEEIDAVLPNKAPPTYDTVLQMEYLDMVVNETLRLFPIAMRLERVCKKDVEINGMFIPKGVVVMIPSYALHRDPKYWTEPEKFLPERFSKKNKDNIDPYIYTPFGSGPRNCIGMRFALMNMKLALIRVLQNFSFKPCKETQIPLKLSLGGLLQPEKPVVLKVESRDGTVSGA
# [14] = molecular target: Cytochrome P450 2C9 (Homo sapiens, UniProt P11712); experiment: Inhibition of human CYP2C9 upto 10 uM relative to control; assay type: ADME
# Chain of Cytochrome P450 2C9 (P11712 whole entry): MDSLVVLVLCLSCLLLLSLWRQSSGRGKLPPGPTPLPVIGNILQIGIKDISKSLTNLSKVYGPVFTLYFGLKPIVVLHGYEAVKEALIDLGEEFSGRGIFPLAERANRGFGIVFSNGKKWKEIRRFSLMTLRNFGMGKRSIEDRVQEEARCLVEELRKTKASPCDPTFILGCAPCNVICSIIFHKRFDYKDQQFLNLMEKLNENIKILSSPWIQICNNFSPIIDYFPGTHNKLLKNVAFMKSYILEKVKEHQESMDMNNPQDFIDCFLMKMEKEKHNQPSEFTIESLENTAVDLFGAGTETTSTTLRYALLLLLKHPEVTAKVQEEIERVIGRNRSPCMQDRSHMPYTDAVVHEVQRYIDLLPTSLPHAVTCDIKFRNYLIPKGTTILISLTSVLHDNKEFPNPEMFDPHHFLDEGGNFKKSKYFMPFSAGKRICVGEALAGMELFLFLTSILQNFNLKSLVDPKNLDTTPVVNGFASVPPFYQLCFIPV
# [15] = molecular target: Cytochrome P450 2C19 (Homo sapiens, UniProt P33261); experiment: Inhibition of human CYP2C19 upto 10 uM relative to control; assay type: ADME
# Chain of Cytochrome P450 2C19 (P33261 whole entry): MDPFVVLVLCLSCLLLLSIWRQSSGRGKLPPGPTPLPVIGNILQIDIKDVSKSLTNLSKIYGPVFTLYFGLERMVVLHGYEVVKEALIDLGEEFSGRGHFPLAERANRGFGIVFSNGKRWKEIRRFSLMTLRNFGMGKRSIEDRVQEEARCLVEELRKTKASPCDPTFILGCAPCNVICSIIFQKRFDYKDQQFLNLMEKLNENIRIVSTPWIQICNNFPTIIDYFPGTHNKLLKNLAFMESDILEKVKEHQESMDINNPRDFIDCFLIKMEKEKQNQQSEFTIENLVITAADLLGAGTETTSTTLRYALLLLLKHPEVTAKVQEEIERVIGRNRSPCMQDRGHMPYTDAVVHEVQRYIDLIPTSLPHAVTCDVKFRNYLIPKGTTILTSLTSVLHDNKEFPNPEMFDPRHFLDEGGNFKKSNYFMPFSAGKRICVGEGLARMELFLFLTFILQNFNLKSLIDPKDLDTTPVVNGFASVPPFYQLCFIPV
# [16] = molecular target: Cytochrome P450 2D6 (Homo sapiens, UniProt P10635); experiment: Inhibition of human CYP2D6 at 10 uM relative to control; assay type: ADME
# Chain of Cytochrome P450 2D6 (P10635 whole entry, the tested form may be a part): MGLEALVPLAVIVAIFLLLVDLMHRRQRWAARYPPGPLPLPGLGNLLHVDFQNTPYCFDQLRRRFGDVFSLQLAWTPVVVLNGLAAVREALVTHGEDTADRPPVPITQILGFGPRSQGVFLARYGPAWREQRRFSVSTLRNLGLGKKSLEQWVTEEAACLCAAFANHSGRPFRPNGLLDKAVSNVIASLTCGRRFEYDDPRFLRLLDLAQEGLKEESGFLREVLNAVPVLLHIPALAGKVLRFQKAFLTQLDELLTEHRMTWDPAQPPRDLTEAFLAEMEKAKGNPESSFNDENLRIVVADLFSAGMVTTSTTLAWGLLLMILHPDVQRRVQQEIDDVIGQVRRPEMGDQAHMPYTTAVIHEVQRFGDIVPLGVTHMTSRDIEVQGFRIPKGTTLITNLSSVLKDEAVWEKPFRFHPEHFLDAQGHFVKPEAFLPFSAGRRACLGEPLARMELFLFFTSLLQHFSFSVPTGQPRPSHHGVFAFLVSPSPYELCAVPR
# [17] = molecular target: NACHT, LRR and PYD domains-containing protein 3 (Mus musculus, UniProt Q8R4B8); experiment: Inhibition of NLRP3 inflammasome activation in LPS/nigericin stimulated mouse BMDMs assessed as reduction in IL-1beta release pretreated with LPS for 3 hrs followed by compound addition for 40 mins prior to nigericin stimulation for 40 mins by ELISA; assay type: cell-based, BMDM
# Chain of NACHT, LRR and PYD domains-containing protein 3 (Q8R4B8 whole entry, the tested form may be a part): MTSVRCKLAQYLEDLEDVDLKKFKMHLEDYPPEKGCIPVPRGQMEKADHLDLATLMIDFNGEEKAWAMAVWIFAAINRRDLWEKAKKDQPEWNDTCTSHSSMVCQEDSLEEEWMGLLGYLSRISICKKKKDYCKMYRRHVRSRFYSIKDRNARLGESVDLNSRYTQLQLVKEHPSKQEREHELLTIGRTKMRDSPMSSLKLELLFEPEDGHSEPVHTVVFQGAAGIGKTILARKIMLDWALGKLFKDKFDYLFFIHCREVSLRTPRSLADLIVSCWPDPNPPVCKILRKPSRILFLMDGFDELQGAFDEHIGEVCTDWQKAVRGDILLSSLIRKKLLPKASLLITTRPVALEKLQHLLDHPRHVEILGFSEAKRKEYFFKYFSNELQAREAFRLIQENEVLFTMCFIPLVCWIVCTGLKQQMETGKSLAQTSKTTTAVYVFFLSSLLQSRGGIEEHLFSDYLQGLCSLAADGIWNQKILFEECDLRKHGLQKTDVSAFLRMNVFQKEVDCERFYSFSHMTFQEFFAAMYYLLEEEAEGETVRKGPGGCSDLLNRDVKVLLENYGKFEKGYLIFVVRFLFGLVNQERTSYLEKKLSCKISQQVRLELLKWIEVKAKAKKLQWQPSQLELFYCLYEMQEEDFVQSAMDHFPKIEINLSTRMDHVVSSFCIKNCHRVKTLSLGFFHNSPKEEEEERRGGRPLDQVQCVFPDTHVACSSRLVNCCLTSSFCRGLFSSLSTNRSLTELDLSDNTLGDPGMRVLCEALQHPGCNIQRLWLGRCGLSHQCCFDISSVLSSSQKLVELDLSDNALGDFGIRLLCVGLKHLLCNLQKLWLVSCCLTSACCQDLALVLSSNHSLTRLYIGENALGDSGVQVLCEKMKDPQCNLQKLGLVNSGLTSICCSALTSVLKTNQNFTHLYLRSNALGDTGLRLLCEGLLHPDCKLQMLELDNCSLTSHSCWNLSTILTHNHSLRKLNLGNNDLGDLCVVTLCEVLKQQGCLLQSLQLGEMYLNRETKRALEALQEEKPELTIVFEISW
# [18] = molecular target: NACHT, LRR and PYD domains-containing protein 3 (Mus musculus) (UniProt Q8R4B8); experiment: Inhibition of NLRP3 inflammasome activation in LPS/nigericin stimulated mouse BMDMs assessed as reduction in IL-1beta release pretreated with LPS for 3 hrs followed by compound addition for 40 mins prior to nigericin stimulation for 40 mins by Western blotting analysis; assay type: cell-based; settings: BMDM, time 80.0 min
# Chain of NACHT, LRR and PYD domains-containing protein 3 (Mus musculus) (Q8R4B8 whole entry, the tested form may be a part): as above
# [19] = molecular target: NACHT, LRR and PYD domains-containing protein 3 (Mus musculus) (UniProt Q8R4B8); experiment: Inhibition of NLRP3 inflammasome activation in LPS/nigericin stimulated mouse BMDMs assessed as reduction in caspase-1 release pretreated with LPS for 3 hrs followed by compound addition for 40 mins prior to nigericin stimulation for 40 mins by Western blotting analysis; assay type: cell-based; settings: BMDM, time 80.0 min
# [20] = molecular target: NACHT, LRR and PYD domains-containing protein 3 (Mus musculus) (UniProt Q8R4B8); experiment: Inhibition of NLRP3 inflammasome activation in LPS/nigericin stimulated mouse BMDMs assessed as effect on pro-IL-1beta expression pretreated with LPS for 3 hrs followed by compound addition for 40 mins prior to nigericin stimulation for 40 mins by Western blotting analysis; assay type: cell-based; settings: BMDM, time 80.0 min
# [21] = molecular target: NACHT, LRR and PYD domains-containing protein 3 (Mus musculus) (UniProt Q8R4B8); experiment: Inhibition of NLRP3 inflammasome activation in LPS/nigericin stimulated mouse BMDMs assessed as effect on pro-caspase-1 expression pretreated with LPS for 3 hrs followed by compound addition for 40 mins prior to nigericin stimulation for 40 mins by Western blotting analysis; assay type: cell-based; settings: BMDM, time 80.0 min
# [22] = molecular target: NACHT, LRR and PYD domains-containing protein 3 (Mus musculus) (UniProt Q8R4B8); experiment: Inhibition of NLRP3 inflammasome activation in LPS/nigericin stimulated mouse BMDMs assessed as effect on NLRP3 expression pretreated with LPS for 3 hrs followed by compound addition for 40 mins prior to nigericin stimulation for 40 mins by Western blotting analysis; assay type: cell-based; settings: BMDM, time 80.0 min
# [23] = molecular target: NACHT, LRR and PYD domains-containing protein 3 (Mus musculus) (UniProt Q8R4B8); experiment: Inhibition of LPS/nigericin induced NLRP3 inflammasome activation in mouse BMDMs assessed as reduction in pyroptosis by measuring […] at 2 to 31.25 nM; assay type: cell-based; settings: BMDM, dose 2-31.25 nM
# [24] = molecular target: NACHT, LRR and PYD domains-containing protein 3 (Mus musculus) (UniProt Q8R4B8); experiment: Inhibition of NLRP3 inflammasome activation in mouse BMDMs assessed as effect on TNF-alpha production at 2 to 31.25 nM pretreated with compound for 40 mins followed by LPS/ATP stimulation; assay type: cell-based; settings: BMDM, dose 2-31.25 nM
# [25] = molecular target: NACHT, LRR and PYD domains-containing protein 3 (Mus musculus) (UniProt Q8R4B8); experiment: Inhibition of NLRP3 inflammasome activation in mouse BMDMs assessed as effect on NLRP3 expression at 2 to 31.25 nM pretreated with compound for 40 mins followed by LPS/nigericin stimulation; assay type: cell-based; settings: BMDM, dose 2-31.25 nM
# [26] = molecular target: NACHT, LRR and PYD domains-containing protein 3 (Mus musculus) (UniProt Q8R4B8); experiment: Inhibition of NLRP3 inflammasome activation in mouse BMDMs assessed as effect on NLRP3 expression at 2 to 31.25 nM pretreated with LPS for 3 hrs followed by compound addition for 40 mins; assay type: cell-based; settings: BMDM, dose 2-31.25 nM
# [27] = system: BMDM; experiment: Reduction in LDH release in LPS/nigericin stimulated mouse BMDMs at 5 to 80 nM; assay type: functional, cell-based; settings: dose 5-80 nM
# [28] = molecular target: NACHT, LRR and PYD domains-containing protein 3 (Mus musculus) (UniProt Q8R4B8); experiment: Inhibition of NLRP3 inflammasome activation in LPS stimulated mouse BMDMs assessed as reduction in IL-1beta release at 2 to 31.25 nM pretreated with LPS for 3 hrs followed by compound addition for 40 mins prior to alum stimulation for 6 hrs by ELISA; assay type: cell-based; settings: BMDM, dose 2-31.25 nM, time 400.0 min
# [29] = molecular target: NACHT, LRR and PYD domains-containing protein 3 (Mus musculus) (UniProt Q8R4B8); experiment: Inhibition of NLRP3 inflammasome activation in LPS stimulated mouse BMDMs assessed as reduction in IL-1beta release at 2 to 31.25 nM pretreated with LPS for 3 hrs followed by compound addition for 40 mins prior to MSU stimulation for 6 hrs by ELISA; assay type: cell-based; settings: BMDM, dose 2-31.25 nM, time 400.0 min
# [30] = system: THP-1; experiment: Inhibition of nigericin induced ASC specks formation in PMA differentiated human THP-1 cells at 5 to 80 nM pretreated with LPS for 3 hrs followed by compound addition for 40 mins prior to nigericin stimulation for 40 mins by Western blotting analysis; assay type: functional, cell-based; settings: dose 5-80 nM, time 80.0 min
# [31] = system: Mus musculus; experiment: Antiinflammatory activity against LPS induced septic shock in BALB/c mouse assessed as increase in survival rate at 25 mg/kg, ip pretreated for 1 hr followed by LPS stimulation and measured after 72 hrs; assay type: functional; settings: time 73 hrs
# [32] = system: Mus musculus; experiment: Antiinflammatory activity against LPS induced septic shock in BALB/c mouse assessed as reduction in serum IL-1beta level at 25 mg/kg, ip pretreated for 1 hr followed by LPS stimulation and measured after 3 hrs by ELISA; assay type: functional, organism-based; settings: time 4.0 hrs
smiles,measurement,setting,value
OCCN1CCC[C@@H](Nc2nnc(-c3ccc4occc4c3O)c3c2C2CCC3CC2)C1,inhibition at 0.5 µM,[1],98.9%
same,half-life at 10 µM,[2],> 2 h
same,intrinsic clearance,[3],< 12 mL/min
same,half-life,[4],3.51 h
same,Cmax,[5],3770 ng/mL
same,MRT last at 24 h,[6],4.1 h
same,Tmax,[7],1.83 h
same,AUC(0-t) at 24 h,[8],5940 ng·h/mL
same,bioavailability,[9],62%
same,Activity,[10],Non-Toxic
same,Activity,[11],Non-Toxic
same,Activity,[12],Toxic
same,inhibition (INH),[13],Not Active
same,inhibition (INH),[14],Not Active
same,inhibition (INH),[15],Not Active
same,inhibition (INH),[16],Active
same,IC50,[17],15.3 nM
same,inhibition,[18],Dose-Dependent Effect
same,inhibition,[19],Dose-Dependent Effect
same,inhibition,[20],inactive
same,inhibition,[21],inactive
same,inhibition,[22],inactive
same,inhibition,[23],Active
same,inhibition,[24],inactive
same,inhibition,[25],inactive
same,inhibition,[26],inactive
same,Activity,[27],Dose-Dependent Effect
same,inhibition,[28],Active
same,inhibition,[29],Active
same,inhibition,[30],Active
same,Activity,[31],82%
same,Activity,[32],Active
